The subject of data set [1] is constitutive androstane receptor, NR1I3 (Homo sapiens). As to the kind of experiment: Agonist activity at human CAR by luciferase reporter assay. For orientation: Reporter assays use an easily measured gene product as a stand-in for the process of interest.
Data set [2] concerns the target T1, Nuclear receptor subfamily 1 group I member 2 (Mus musculus, UniProt O54915).
T1 sequence (O54915 whole entry): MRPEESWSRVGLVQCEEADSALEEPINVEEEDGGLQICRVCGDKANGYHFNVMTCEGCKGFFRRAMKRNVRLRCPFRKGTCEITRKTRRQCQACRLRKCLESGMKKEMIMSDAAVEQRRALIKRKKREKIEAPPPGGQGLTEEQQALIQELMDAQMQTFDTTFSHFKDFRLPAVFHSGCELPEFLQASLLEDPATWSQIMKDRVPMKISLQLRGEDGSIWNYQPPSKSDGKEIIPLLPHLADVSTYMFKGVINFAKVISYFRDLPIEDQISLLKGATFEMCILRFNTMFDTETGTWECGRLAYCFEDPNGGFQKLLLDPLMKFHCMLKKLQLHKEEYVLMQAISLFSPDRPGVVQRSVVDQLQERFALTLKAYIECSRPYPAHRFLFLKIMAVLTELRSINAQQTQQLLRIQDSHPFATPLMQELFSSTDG
Put plainly: Antagonist activity at mouse PXR in presence of PCN by luciferase reporter assay.

For data set [3], the target named is T1, Nuclear receptor subfamily 1 group I member 2. Put plainly: Agonist activity at mouse PXR by luciferase reporter assay. In kind it is ADME.
Data set [4] deals with HepG2. As to the kind of experiment: Cytotoxicity against human HepG2 cells co-expressing luciferase gene under control of CYP3A4 promoter measured after 24 hrs by CellTiter-Glo luminescent cell viability assay. In kind it is ADME, cell-based. To be noted: human, hepg2, 24 h; time 24 hrs. On the technique in general: In ATP-based viability assays light output follows the ATP content of the culture.

Data set [5] addresses T2, Vitamin D3 receptor (Homo sapiens) (UniProt P11473).
T2 sequence (whole entry): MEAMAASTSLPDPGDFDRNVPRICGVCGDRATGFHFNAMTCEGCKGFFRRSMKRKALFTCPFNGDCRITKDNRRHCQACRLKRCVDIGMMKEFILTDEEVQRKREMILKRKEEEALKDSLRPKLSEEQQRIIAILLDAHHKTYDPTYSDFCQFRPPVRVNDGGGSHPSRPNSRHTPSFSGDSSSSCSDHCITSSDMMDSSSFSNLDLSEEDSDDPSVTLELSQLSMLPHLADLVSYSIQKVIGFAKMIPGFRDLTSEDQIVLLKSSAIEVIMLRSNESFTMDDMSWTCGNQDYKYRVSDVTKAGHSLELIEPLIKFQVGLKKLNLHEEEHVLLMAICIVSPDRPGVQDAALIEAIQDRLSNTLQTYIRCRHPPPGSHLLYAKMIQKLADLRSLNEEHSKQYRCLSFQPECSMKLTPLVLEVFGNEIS
As to the kind of experiment: Agonist activity at human VDR expressed in HEK293T cells by luciferase reporter assay. Format: cell-based.

Data set [6] has as its target T3, Nuclear receptor subfamily 1 group I member 2 (Homo sapiens, UniProt O75469).
T3 sequence (O75469 whole entry): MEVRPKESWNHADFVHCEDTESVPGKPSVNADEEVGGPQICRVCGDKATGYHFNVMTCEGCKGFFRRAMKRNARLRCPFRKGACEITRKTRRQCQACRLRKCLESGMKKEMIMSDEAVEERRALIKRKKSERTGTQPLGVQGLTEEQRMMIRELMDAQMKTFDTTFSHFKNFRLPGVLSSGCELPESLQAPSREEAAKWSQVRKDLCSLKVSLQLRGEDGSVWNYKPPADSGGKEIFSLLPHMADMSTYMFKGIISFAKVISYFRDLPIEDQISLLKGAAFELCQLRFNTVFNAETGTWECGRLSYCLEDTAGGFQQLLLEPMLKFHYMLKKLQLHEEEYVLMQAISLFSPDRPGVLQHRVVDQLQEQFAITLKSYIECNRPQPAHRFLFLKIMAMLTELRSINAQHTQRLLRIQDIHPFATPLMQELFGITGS
As to the kind of experiment: Displacement of BODIPY FL vindoline from GST-tagged human PXR LBD incubated for 60 mins by TR-FRET assay. Background: In TR-FRET formats the signal depends on donor and acceptor labels being close together.

For data set [7], the target named is T4, PXR (NR1I2) (Homo sapiens, UniProt O75469).
T4 sequence (O75469 whole entry): T3 sequence (O75469 whole entry)
As to the kind of experiment: Agonist activity at human PXR expressed in HepG2 cells co-expressing luciferase gene under control of CYP3A4 promoter at 10 uM incubated for 24 hrs by luciferase reporter assay relative to control.

Data set [8] has as its target T3, Nuclear receptor subfamily 1 group I member 2. As to the kind of experiment: Agonist activity at human PXR expressed in HepG2 cells co-expressing luciferase gene under control of CYP3A4 promoter incubated for 24 hrs by luciferase reporter assay.
The target of data set [9] is T4, PXR (NR1I2). Put plainly: Inhibition of human PXR expressed in HepG2 cells co-expressing luciferase gene under control of CYP3A4 promoter at 10 uM incubated for 24 hrs in presence of 5 uM rifampicin by luciferase reporter assay relative to control. In kind it is cell-based.
The target in data set [10] is T2, Vitamin D3 receptor (Homo sapiens). Put plainly: Antagonist activity at human VDR expressed in HEK293T cells in presence of 1alpha,25-dihydroxyvitamin D3 by luciferase reporter assay. In kind it is cell-based.
Data set [11] has as its target T3, Nuclear receptor subfamily 1 group I member 2. Put plainly: Antagonist activity at human PXR expressed in HepG2 cells co-expressing luciferase gene under control of CYP3A4 promoter incubated for 24 hrs in presence of 5 uM rifampicin by luciferase reporter assay.
The target of data set [12] is T4, PXR (NR1I2). Put plainly: Displacement of BODIPY FL vindoline from GST-tagged human PXR LBD at 10 uM incubated for 60 mins by TR-FRET assay relative to control. Conditions: GST-tagged human PXR LBD (recombinant protein), probe BODIPY FL vindoline.
Data set [13] addresses T5, Bile acid receptor (Homo sapiens) (UniProt Q96RI1).
T5 sequence (whole entry): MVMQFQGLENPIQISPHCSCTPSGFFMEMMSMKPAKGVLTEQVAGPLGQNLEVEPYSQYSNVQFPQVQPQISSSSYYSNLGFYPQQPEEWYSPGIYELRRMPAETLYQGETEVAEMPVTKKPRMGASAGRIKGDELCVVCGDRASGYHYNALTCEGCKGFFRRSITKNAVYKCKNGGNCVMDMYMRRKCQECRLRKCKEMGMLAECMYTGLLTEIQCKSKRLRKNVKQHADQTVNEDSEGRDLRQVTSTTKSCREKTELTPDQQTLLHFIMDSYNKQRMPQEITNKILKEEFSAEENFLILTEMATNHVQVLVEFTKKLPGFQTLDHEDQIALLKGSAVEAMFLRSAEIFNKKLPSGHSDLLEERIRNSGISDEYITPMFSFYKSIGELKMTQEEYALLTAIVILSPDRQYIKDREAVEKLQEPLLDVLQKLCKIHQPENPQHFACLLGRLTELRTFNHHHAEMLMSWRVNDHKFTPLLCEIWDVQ
Put plainly: Antagonist activity at human FXR expressed in HEK293T cells in presence of GW4064 by luciferase reporter assay. In kind it is cell-based.

Data set [14] addresses T5, Bile acid receptor (Homo sapiens). Put plainly: Agonist activity at human FXR expressed in HEK293T cells by luciferase reporter assay. Format: cell-based.

Each structure is given as a SMILES string. Activity calls are given as the source filed them. No cut-off for these calls is given here.

With `CCc1c(S(=O)(=O)c2ccc(C(C)(C)C)cc2)nnn1-c1cc(OC)ccc1OC`, the Activity entry in [1] was “inactive”. Besides, the Activity result is given as “Not Active” in [2], “Not Active” in data set [3] and “Non-Toxic” in data set [4].
As usually defined, the IC50 is the concentration at which inhibition is half-maximal. As usually defined, the EC50 is the midpoint of the concentration-response curve. The low end stands for an effect from little substance, the high end for a need for much substance. Broadly, the inhibition is how much of the control response was suppressed. Turning to `COc1ccc(F)cc1-n1nnc(S(=O)(=O)c2ccc(C(C)(C)C)cc2)c1C`, the Activity entry in data set [5], in [1], in [10], in data set [13] and in data set [14] was “inactive” in each case. Further, the IC50 in data set [6] amounted to 400 nM; in data set [11], 700 nM. Also, the activity at 24 h, 10 µM in [7] worked out at 37%. In data set [8], this compound yielded an EC50 of 240 nM. For the same compound, the inhibition at 24 h, 10 µM in [9] was 70%. In addition, the Activity entry in [2] is given as “Not Active”; in data set [4], “Non-Toxic”. For the same compound, in data set [12], the inhibition at 1 h, 10 µM turned out to be 80%.
For the compound `COc1ccc(Cl)cc1-n1nnc(S(=O)(=O)c2ccc(C(C)(C)C)cc2)c1C#N`, the Activity result in data set [5], in [1], in data set [10], in data set [13] and in data set [14] was “inactive” each time. Besides, the IC50 in data set [6] stood at 61 nM. Also, the activity at 24 h, 10 µM in [7] turned out to be 105%. For the same compound, in [8], the EC50 is 80 nM. The Activity result in data set [2] is “Not Active”; in [3] it was “Not Active”; in data set [4] it was “Non-Toxic”. Also, in data set [12], the inhibition at 1 h, 10 µM was determined as 90%.

(Values after ChEMBL document CHEMBL4834393, “Building a Chemical Toolbox for Human Pregnane X Receptor Research: Discovery of Agonists, Inverse Agonists, and Antagonists Among Analogs Based on the Unique Chemical Scaffold of SPA70” (J Med Chem, 2021).)
